# According to PubChem BioAssay AID1963858 (Molecular Pharmacology Branch, DTP, NCI, 2024):
# Test system: HOP-62 multicell spheroids with HUVEC/MSC, viability
# Assay: Anticancer human tumor HOP-62 cell line growth inhibition [KRAS2];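 also: viability read after a week of compound exposure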;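 as to viability, T/C: 100% = DMSO vehicle-treated spheroids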
# Conditions: for viability, T/C: stronger effect = lower value
# Outline: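 KRAS-mutant tumor cells were grown as spheroids with HUVEC endothelial cells and human MSCs as stroma. Targeted agents were tested alone and with KRAS pathway inhibitors. Doses started at or near clinical Cmax, or 10 microM, descending half-log.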
# [1] = curve of first compound, second compound 0.1 µM
# [2] = curve of first compound, second compound 0.316 µM
# [3] = curve of first compound, second compound 1 µM
# [4] = curve of first compound, second compound 3.16 µM
# [5] = curve of first compound, second compound 10 µM
# [6] = second compound 0.1 µM, first compound 0.0316 µM
# [7] = second compound 0.1 µM, first compound 0.1 µM
# [8] = second compound 0.1 µM, first compound 0.316 µM
# [9] = second compound 0.1 µM, first compound 1 µM
# [10] = second compound 0.1 µM, first compound 3.16 µM
# [11] = second compound 0.1 µM, first compound 10 µM
# [12] = second compound 0.316 µM, first compound 0.0316 µM
# [13] = second compound 0.316 µM, first compound 0.1 µM
# [14] = second compound 0.316 µM, first compound 0.316 µM
# [15] = second compound 0.316 µM, first compound 1 µM
# [16] = second compound 0.316 µM, first compound 3.16 µM
# [17] = second compound 0.316 µM, first compound 10 µM
# [18] = second compound 1 µM, first compound 0.0316 µM
# [19] = second compound 1 µM, first compound 0.1 µM
# [20] = second compound 1 µM, first compound 0.316 µM
# [21] = second compound 1 µM, first compound 1 µM
# [22] = second compound 1 µM, first compound 3.16 µM
# [23] = second compound 1 µM, first compound 10 µM
# [24] = second compound 3.16 µM, first compound 0.0316 µM
# [25] = second compound 3.16 µM, first compound 0.1 µM
# [26] = second compound 3.16 µM, first compound 0.316 µM
# [27] = second compound 3.16 µM, first compound 1 µM
# [28] = second compound 3.16 µM, first compound 3.16 µM
# [29] = second compound 3.16 µM, first compound 10 µM
# [30] = second compound 10 µM, first compound 0.0316 µM
# [31] = second compound 10 µM, first compound 0.1 µM
# [32] = second compound 10 µM, first compound 0.316 µM
# [33] = second compound 10 µM, first compound 1 µM
# [34] = second compound 10 µM, first compound 3.16 µM
# [35] = second compound 10 µM, first compound 10 µM
# [36] = second compound 0.1 µM, first compound 0.01 µM
# [37] = second compound 0.316 µM, first compound 0.01 µM
# [38] = second compound 1 µM, first compound 0.01 µM
# [39] = second compound 3.16 µM, first compound 0.01 µM
# [40] = second compound 10 µM, first compound 0.01 µM
compound,measurement,setting,value
COc1cc(Nc2ncc3c(n2)-c2ccc(Cl)cc2C(c2c(F)cccc2OC)=NC3)ccc1C(=O)O + COc1cc2nc(C)nc(NC(C)c3cc(N)cc(C(F)(F)F)c3)c2cc1OC1CCOC1,IC50,[1],237 nM
same,IC50,[2],124 nM
same,IC50,[3],< 31.6 nM
same,IC50,[4],< 31.6 nM
same,IC50,[5],< 31.6 nM
same,"viability, T/C",[6],58%
same,"viability, T/C",[7],61.3%
same,"viability, T/C",[8],43.1%
same,"viability, T/C",[9],39.1%
same,"viability, T/C",[10],25.6%
same,"viability, T/C",[11],19.1%
same,"viability, T/C",[12],53.7%
same,"viability, T/C",[13],50%
same,"viability, T/C",[14],44%
same,"viability, T/C",[15],41.8%
same,"viability, T/C",[16],23.5%
same,"viability, T/C",[17],16.1%
same,"viability, T/C",[18],44.8%
same,"viability, T/C",[19],42.4%
same,"viability, T/C",[20],35.7%
same,"viability, T/C",[21],30.5%
same,"viability, T/C",[22],23.8%
same,"viability, T/C",[23],16.7%
same,"viability, T/C",[24],35.5%
same,"viability, T/C",[25],31.4%
same,"viability, T/C",[26],28.8%
same,"viability, T/C",[27],25.1%
same,"viability, T/C",[28],19.7%
same,"viability, T/C",[29],13.2%
same,"viability, T/C",[30],32.8%
same,"viability, T/C",[31],28.6%
same,"viability, T/C",[32],30.9%
same,"viability, T/C",[33],29.1%
same,"viability, T/C",[34],18%
same,"viability, T/C",[35],8.97%
CCNC(=O)CC1N=C(c2ccc(Cl)cc2)c2cc(OC)ccc2-n2c(C)nnc21 (stereo unspecified),"viability, T/C",compound 0.0316 µM,105% [middle of 5 runs]
same,"viability, T/C",compound 0.1 µM,90% [middle of 5 runs]
same,"viability, T/C",compound 0.316 µM,62.1% [middle of 5 runs]
same,"viability, T/C",compound 1 µM,48.2% [middle of 5 runs]
same,"viability, T/C",compound 3.16 µM,44.7% [middle of 5 runs]
same,IC50,curve of compound,880 nM [middle of 5 runs]
CC(C)NCC(C(=O)N1CCN(c2ncnc3c2C(C)CC3O)CC1)c1ccc(Cl)cc1 (stereo unspecified) + C=CC(=O)N1CCN(c2nc(=O)n(-c3c(C)ccnc3C(C)C)c3nc(-c4c(O)cccc4F)c(F)cc23)C(C)C1,IC50,[1],69.2 nM
same,IC50,[2],70 nM
same,IC50,[3],88.9 nM
same,IC50,[4],110 nM
same,IC50,[5],< 31.6 nM
same,"viability, T/C",[6],60.9%
same,"viability, T/C",[7],45.3%
same,"viability, T/C",[8],22.2%
same,"viability, T/C",[9],12.4%
same,"viability, T/C",[10],7.1%
same,"viability, T/C",[11],5.4%
same,"viability, T/C",[12],53.8%
same,"viability, T/C",[13],49.1%
same,"viability, T/C",[14],28.2%
same,"viability, T/C",[15],12.9%
same,"viability, T/C",[16],6.09%
same,"viability, T/C",[17],5.39%
same,"viability, T/C",[18],57.2%
same,"viability, T/C",[19],49.6%
same,"viability, T/C",[20],27.2%
same,"viability, T/C",[21],11.8%
same,"viability, T/C",[22],6.8%
same,"viability, T/C",[23],5.57%
same,"viability, T/C",[24],55.7%
same,"viability, T/C",[25],51%
same,"viability, T/C",[26],36.3%
same,"viability, T/C",[27],15.1%
same,"viability, T/C",[28],7.34%
same,"viability, T/C",[29],4.5%
same,"viability, T/C",[30],43.3%
same,"viability, T/C",[31],28.1%
same,"viability, T/C",[32],19.5%
same,"viability, T/C",[33],12.8%
same,"viability, T/C",[34],8.3%
same,"viability, T/C",[35],5.28%
CC(C)n1nc(-c2ccc3oc(N)nc3c2)c2c(N)ncnc21 + C=CC(=O)N1CCN(c2nc(=O)n(-c3c(C)ccnc3C(C)C)c3nc(-c4c(O)cccc4F)c(F)cc23)C(C)C1,IC50,[1],< 0.316 nM
same,IC50,[2],0.36 nM
same,IC50,[3],0.592 nM
same,IC50,[4],0.671 nM
same,IC50,[5],< 0.316 nM
same,"viability, T/C","second compound 0.1 µM, first compound 0.000316 µM",42.3%
same,"viability, T/C","second compound 0.1 µM, first compound 0.001 µM",33.4%
same,"viability, T/C","second compound 0.1 µM, first compound 0.00316 µM",19.2%
same,"viability, T/C",[36],15.4%
same,"viability, T/C",[6],10.2%
same,"viability, T/C",[7],8.15%
same,"viability, T/C","second compound 0.316 µM, first compound 0.000316 µM",51.1%
same,"viability, T/C","second compound 0.316 µM, first compound 0.001 µM",41%
same,"viability, T/C","second compound 0.316 µM, first compound 0.00316 µM",25.3%
same,"viability, T/C",[37],14.2%
same,"viability, T/C",[12],11.4%
same,"viability, T/C",[13],8.53%
same,"viability, T/C","second compound 1 µM, first compound 0.000316 µM",62.8%
same,"viability, T/C","second compound 1 µM, first compound 0.001 µM",38.9%
same,"viability, T/C","second compound 1 µM, first compound 0.00316 µM",25.5%
same,"viability, T/C",[38],15.3%
same,"viability, T/C",[18],11%
same,"viability, T/C",[19],8.43%
same,"viability, T/C","second compound 3.16 µM, first compound 0.000316 µM",60.2%
same,"viability, T/C","second compound 3.16 µM, first compound 0.001 µM",43.8%
same,"viability, T/C","second compound 3.16 µM, first compound 0.00316 µM",31.9%
same,"viability, T/C",[39],18.6%
same,"viability, T/C",[24],12.4%
same,"viability, T/C",[25],8.73%
same,"viability, T/C","second compound 10 µM, first compound 0.000316 µM",36.9%
same,"viability, T/C","second compound 10 µM, first compound 0.001 µM",28.8%
same,"viability, T/C","second compound 10 µM, first compound 0.00316 µM",25%
same,"viability, T/C",[40],16.2%
same,"viability, T/C",[30],11.8%
same,"viability, T/C",[31],9.42%
CC(C)n1nc(-c2ccc3oc(N)nc3c2)c2c(N)ncnc21,"viability, T/C",compound 0.000316 µM,93.7% [middle of 5 runs]
same,"viability, T/C",compound 0.001 µM,80.3% [middle of 5 runs]
same,"viability, T/C",compound 0.01 µM,44% [middle of 5 runs]
same,"viability, T/C",compound 0.0316 µM,25.6% [middle of 5 runs]
same,"viability, T/C",compound 0.1 µM,18.1% [middle of 5 runs]
CC(=O)OC12COC1CC(O)C1(C)C(=O)C(O)C3=C(C)C(OC(=O)C(O)C(NC(=O)OC(C)(C)C)c4ccccc4)CC(O)(C(OC(=O)c4ccccc4)C21)C3(C)C (stereo unspecified) + C=CC(=O)N1CCN(c2nc(=O)n(-c3c(C)ccnc3C(C)C)c3nc(-c4c(O)cccc4F)c(F)cc23)C(C)C1,IC50,[1],< 10 nM
same,IC50,[2],< 10 nM
same,IC50,[3],< 10 nM
same,IC50,[4],< 10 nM
same,IC50,[5],< 10 nM
same,"viability, T/C",[36],24.3%
same,"viability, T/C",[6],27.3%
same,"viability, T/C",[7],26.8%
same,"viability, T/C",[8],25.1%
same,"viability, T/C",[9],25.2%
same,"viability, T/C",[10],28.5%
same,"viability, T/C",[37],29.5%
same,"viability, T/C",[12],23.9%
same,"viability, T/C",[13],24.7%
same,"viability, T/C",[14],27.3%
same,"viability, T/C",[15],24.9%
same,"viability, T/C",[16],31.1%
same,"viability, T/C",[38],29.4%
same,"viability, T/C",[18],23%
same,"viability, T/C",[19],28%
same,"viability, T/C",[20],27.8%
same,"viability, T/C",[21],30.2%
same,"viability, T/C",[22],30%
same,"viability, T/C",[39],32.8%
same,"viability, T/C",[24],25.4%
same,"viability, T/C",[25],27%
same,"viability, T/C",[26],35.1%
same,"viability, T/C",[27],32.5%
same,"viability, T/C",[28],33.1%
same,"viability, T/C",[40],28.1%
same,"viability, T/C",[30],26.9%
same,"viability, T/C",[31],27.9%
same,"viability, T/C",[32],29.9%
same,"viability, T/C",[33],30.8%
same,"viability, T/C",[34],34.6%
